Experimental data as given in article PMC7315563, “Bioactive fluorenes. Part III: 2,7-dichloro-9H-fluorene-based thiazolidinone and azetidinone analogues as anticancer and antimicrobial against multidrug resistant strains agents” (BMC Chemistry, 2020).
≈ marks a conversion by molar mass, not a printed value.

Experiments:
[1] = tested on: MDA-MB-231 human breast cancer cells; assay: cell viability assay (MTT); format: cell-based; conditions: 24 h; for viability at 1 µg/mL: read-out: Validity (%) for sample concentrations (µg/mL) 1; for viability at 10 µg/mL: read-out: Validity (%) for sample concentrations (µg/mL) 10; for viability at 31.25 µg/mL: read-out: Validity (%) for sample concentrations (µg/mL) 31.25; for viability at 62.5 µg/mL: read-out: Validity (%) for sample concentrations (µg/mL) 62.5; for viability at 125 µg/mL: read-out: Validity (%) for sample concentrations (µg/mL) 125; for viability at 250 µg/mL: read-out: Validity (%) for sample concentrations (µg/mL) 250; for viability at 500 µg/mL: read-out: Validity (%) for sample concentrations (µg/mL) 500
Description: (§1) WI-38 normal lung fibroblast cells, A549 lung cancer cells, and MDA-MB-231 breast cancer cells were obtained from VACSERA—Cell Culture Unit, Cairo, Egypt. The cell lines were originally obtained from the American Tissue Culture Collection (ATCC). WI-38, A549, and MDA-MB-231 cell lines were cultured in RPMI-1640 medium supplemented with 10% inactivate fetal bovine serum (FBS) and 1% penicillin/streptomycin were bought (Gibco, Invitrogen, CA). WI-38, A549, and MDA-MB-231 cells were seeded into 96-well plates (at a density of 5000 cells/well). On the following day, cells were treated with different concentrations (0, 1, 10, 31.25, 62.5, 125, 250, 500 µg/mL) of 16 fluorene derivatives in fresh medium and incubated for another 24 h. Cell viability was then assessed using the MTT assay (Sigma Aldrich, St. Louis, MO, USA), and the absorbance was read at 570 nm using an ELISA microplate reader (Molecular Devices, Downingtown, PA, USA).

[2] = tested on: WI-38 human normal fibroblast cells; assay: cell viability assay (MTT); format: cell-based; conditions: 24 h; for viability at 31.25 µg/mL: read-out: Validity (%) for sample concentrations (µg/mL) 31.25; for viability at 62.5 µg/mL: 62.50 µg/mL, read-out: Validity (%) for sample concentrations (µg/mL) 62.50; for viability at 125 µg/mL: read-out: Validity (%) for sample concentrations (µg/mL) 125; for viability at 250 µg/mL: read-out: Validity (%) for sample concentrations (µg/mL) 250; for viability at 500 µg/mL: read-out: Validity (%) for sample concentrations (µg/mL) 500
Description: as §1

[3] = tested on: A549 human lung cancer cells; assay: cell viability assay (MTT); format: cell-based; conditions: 24 h; for viability at 1 µg/mL: read-out: Validity (%) for sample concentrations (µg/mL) 1; for viability at 10 µg/mL: read-out: Validity (%) for sample concentrations (µg/mL) 10; for viability at 31.25 µg/mL: read-out: Validity (%) for sample concentrations (µg/mL) 31.25; for viability at 62.5 µg/mL: 62.50 µg/mL, read-out: Validity (%) for sample concentrations (µg/mL) 62.50; for viability at 125 µg/mL: read-out: Validity (%) for sample concentrations (µg/mL) 125; for viability at 250 µg/mL: read-out: Validity (%) for sample concentrations (µg/mL) 250; for viability at 500 µg/mL: read-out: Validity (%) for sample concentrations (µg/mL) 500; for viability at 1000 µg/mL: read-out: Validity (%) for sample concentrations (µg/mL) 1000
Description: as §1, with “On the following day, cells were treated with different concentrations (0, 1, 10, 31.25, 62.5, 125, 250, 500 µg/mL) of 16 fluorene derivatives in fresh medium and incubated for another 24 h.” left out

[4] = tested on: Staphylococcus aureus (S. aureus), multidrug resistant clinical isolate; assay: agar well diffusion assay; format: cell-based; conditions: Staphylococcus aureus; S. aureus; 500 µg/mL of tested compound; 24 h
Text: All microbial strains were kindly provided from the department of Medical Microbiology and Immunology faculty of Medicine Assiut University, these clinical isolates were obtained from clinical cases of infections admitted to Assiut University hospital as urinary tract infections, corneal ulcers, bacterial and fungal pneumonia, otomycosis, oral thrush and wound infections.
The clinical isolates used were multidrug resistant strains, they were resistant to β lactam (penicillin, amoxacillin, oxacillin), cephalosporins (cefazolin, cefaclor and cefepime) and macrolides (erythromycin and clarithromycin), they included Gram positive bacteria as Staphylococcus aureus (S. aureus), Methicillin-resistant Staphylococcus aureus (MRSA), Streptococcus pneumoniae (S. pneumoniae), and Gram negative bacteria as Escherichia coli (E. coli), Klebsiella pneumoniae (K. pneumoniae), Pseudomonas aeruginosa (P. aeruginosa), and Acinetobacter baumannii (A. baumannii). The fungal strains that were tested are Aspergillus flavus (A. flavus), A. niger (A. niger) and Candida albicans (C. albicans).
The antimicrobial activity of the fluorene derivatives was initially evaluated by agar well diffusion assay. Mueller–Hinton agar (CM0337) was poured into Petri dishes at 50–60 °C and left to solidify for 15 min. Subsequently, overnight microbial suspensions of tested strains was adjusted to turbidity of 0.5 McFarland Standard, which equals to 1–2 × 10^8 CFU/mL for bacteria and 1–5 × 10^6 for fungi. The microbial inoculums were then diluted in 1:100 ratio in case of bacteria and 1:10 ratio in case of fungi in order to get 1–5 × 10^5 CFU/mL. a sterile cotton swab was dipped into the adjusted microbial suspension and the Mueller–Hinton agar plates were inoculated by evenly streaking cotton swab over the agar medium. Then wells with a diameter of 0.5 cm were cut in the medium with a sterile cork borer. Stock solutions of the flourene derivatives were diluted in DMSO 1% to get 500 μg/mL concentrations. The tested flourene derivatives and controls (50 μL) were dispensed into the wells. The plates were incubated for 24 h at 37 °C for bacteria and C. albicans while at 25 °C for A. falvus and A. niger. The diameters of zones of inhibition (ZOI) around the wells were measured in mm. Following control agents were used: positive control agents—vancomycin (50 μg/mL) for Gram positive bacteria, gentamicin (10 μg/mL) (for Gram negative bacteria) and fluconazole 25 μg/mL for fungi and negative control agent is 1% DMSO.

Row | Structure (SMILES) | viability at 1 µg/mL [1] | viability at 10 µg/mL [1] | viability at 31.25 µg/mL [1] | viability at 62.5 µg/mL [1] | viability at 125 µg/mL [1] | viability at 250 µg/mL [1] | viability at 500 µg/mL [1] | IC50 [1] | viability at 31.25 µg/mL [2] | viability at 62.5 µg/mL [2] | viability at 125 µg/mL [2] | viability at 250 µg/mL [2] | viability at 500 µg/mL [2] | IC50 [2] | melting point | viability at 1 µg/mL [3] | viability at 10 µg/mL [3] | viability at 31.25 µg/mL [3] | viability at 62.5 µg/mL [3] | viability at 125 µg/mL [3] | also measured
1 | O=C1CSC(c2ccccc2)N1c1nc(-c2cc(Cl)cc3c2-c2ccc(Cl)cc2C3)cs1 (stereo not drawn) [5a, 3-(4-(2,7-Dichloro-9H-fluoren-4-yl)thiazol-2-yl)-2-phenylthiazolidin-4-one] | 98.3% | 96.7% | 93.6% | 86.1% | 85.9% | 82.5% | 75.8% | > 500 µg/mL | 89.8% | 83.3% | 80.6% | 77.3% | 74.3% | > 500 µg/mL | 79 to 82 °C | 95.6% | 91.4% | 86.8% | 82.3% | 79.7% | viability at 250 µg/mL [3]: 75.4%; viability at 500 µg/mL [3]: 45.5%; viability at 1000 µg/mL [3]: 12.5%; IC50 [3]: 413 µg/mL (≈ 834 µM); zone of inhibition at 500 µg/mL [4]: 3 mm
2 | COc1ccc(C2SCC(=O)N2c2nc(-c3cc(Cl)cc4c3-c3ccc(Cl)cc3C4)cs2)cc1 (stereo not drawn) [5b, 3-(4-(2,7-Dichloro-9H-fluoren-4-yl)thiazol-2-yl)-2-(4-methoxyphenyl)thiazolidin-4-one] | 97.8% | 97.4% | 90.8% | 88.6% | 87.3% | 83.6% | 81.5% | > 500 µg/mL | 99.4% | 94.4% | 91.3% | 81.2% | 79% | > 500 µg/mL | 74 to 76 °C | 91.2% | 85.4% | 84% | 67.8% | 64.3% | viability at 250 µg/mL [3]: 57.1%; viability at 500 µg/mL [3]: 44.2%; viability at 1000 µg/mL [3]: 17.8%; IC50 [3]: 402 µg/mL (≈ 765 µM); zone of inhibition at 500 µg/mL [4]: 4 mm
3 | O=C1CSC(c2ccc(Cl)cc2)N1c1nc(-c2cc(Cl)cc3c2-c2ccc(Cl)cc2C3)cs1 (stereo not drawn) [5c, 2-(4-Chlorophenyl)-3-(4-(2,7-dichloro-9H-fluoren-4-yl)thiazol-2-yl)thiazolidin-4-one] | 97.1% | 95.7% | 95.8% | 92.1% | 86.3% | 84.5% | 83% | > 500 µg/mL | 89.7% | 87.3% | 83.8% | 77.5% | 71.3% | > 500 µg/mL | 83 to 85 °C | 91.2% | 90.1% | 89.2% | 80.9% | 62.6% | viability at 250 µg/mL [3]: 59.8%; viability at 500 µg/mL [3]: 46.3%; viability at 1000 µg/mL [3]: 14.9%; IC50 [3]: 415 µg/mL (≈ 783 µM); zone of inhibition at 500 µg/mL [4]: 3 mm
